Experimental data from the OligoGym collection.
HELM strings list units from the 5' end as sugar, base in round brackets, then linkage (d deoxyribose, r ribose, m 2'-O-methyl, p phosphodiester). Strings are as the collection lists them; they lack the last nucleoside at the 3' end of the tested compound. [moe] = 2'-O-(2-methoxyethyl) (MOE); [sp] = phosphorothioate linkage; [m5C] = 5-methylcytosine

Molecular target: GFAP
Test: mouse, dose not given
Details: ASO

Substance: RNA1{[moe](T)[sp].[moe]([m5C])p.[moe](T)p.[moe](T)p.[moe](T)p.[moe](A)p.d(T)[sp].d(T)[sp].d(T)[sp].d(T)[sp].d(T)[sp].d([m5C])[sp].d([m5C])[sp].d(T)[sp].d([m5C])[sp].d(A)[sp].[moe](G)p.[moe]([m5C])[sp].[moe](G)}$$$$ (last 3' nucleoside missing)
- 3 h FOB score: 0 score 0-7

Substance: RNA1{[moe](G)[sp].[moe](G)p.[moe]([m5C])p.[moe](A)p.[moe](G)[sp].d(T)[sp].d(A)[sp].d(T)[sp].d(T)[sp].d(A)[sp].d([m5C])[sp].d([m5C])[sp].d(T)[sp].d([m5C])[sp].d(T)[sp].[moe](A)p.[moe]([m5C])p.[moe](T)[sp].[moe](A)}$$$$ (last 3' nucleoside missing)
- 3 h FOB score: 3 score 0-7

Substance: RNA1{[moe](T)[sp].[moe](G)p.[moe](T)p.[moe](G)p.d(T)[sp].d(A)[sp].d(T)[sp].d(T)[sp].d(A)[sp].d(G)[sp].d(G)[sp].d(A)[sp].d(T)[sp].d([m5C])[sp].[moe]([m5C])p.[moe]([m5C])p.[moe](A)p.[moe](T)[sp].[moe]([m5C])}$$$$ (last 3' nucleoside missing)
- 3 h FOB score: 3 score 0-7

Substance: RNA1{[moe](A)[sp].[moe]([m5C])p.[moe](A)p.[moe](G)p.[moe](T)p.d(T)[sp].d([m5C])[sp].d([m5C])[sp].d([m5C])[sp].d(A)[sp].d(G)[sp].d(A)[sp].d(T)[sp].d(A)[sp].d([m5C])[sp].[moe](T)p.[moe]([m5C])p.[moe]([m5C])[sp].[moe](G)}$$$$ (last 3' nucleoside missing)
- 3 h FOB score: 2 score 0-7

Substance: RNA1{[moe](T)[sp].[moe](G)p.[moe](A)p.[moe](G)p.[moe](G)[sp].d([m5C])[sp].d(T)[sp].d(T)[sp].d(T)[sp].d(T)[sp].d(G)[sp].d(A)[sp].d(G)[sp].d(A)[sp].d(T)[sp].[moe](A)p.[moe](T)p.[moe]([m5C])[sp].[moe](T)}$$$$ (last 3' nucleoside missing)
- 3 h FOB score: 3 score 0-7

Substance: RNA1{[moe](A)[sp].[moe](G)p.[moe](A)p.[moe](G)p.[moe](A)[sp].d(T)[sp].d(G)[sp].d(G)[sp].d(G)[sp].d(T)[sp].d(G)[sp].d(A)[sp].d(G)[sp].d(G)[sp].d(T)[sp].[moe](G)p.[moe](A)p.[moe](G)[sp].[moe](G)}$$$$ (last 3' nucleoside missing)
- 3 h FOB score: 7 score 0-7

Substance: RNA1{[moe](G)[sp].[moe](G)p.[moe]([m5C])p.[moe]([m5C])p.[moe](T)[sp].d(A)[sp].d([m5C])[sp].d(T)[sp].d(T)[sp].d([m5C])[sp].d(T)[sp].d([m5C])[sp].d(T)[sp].d(A)[sp].d(G)[sp].[moe](G)p.[moe](T)p.[moe](G)[sp].[moe](G)}$$$$ (last 3' nucleoside missing)
- 3 h FOB score: 1 score 0-7

Substance: RNA1{[moe](T)[sp].[moe]([m5C])p.[moe](T)p.[moe](T)p.[moe](T)[sp].d(A)[sp].d(T)[sp].d(T)[sp].d(T)[sp].d(T)[sp].d(T)[sp].d([m5C])[sp].d([m5C])[sp].[moe](T)p.[moe]([m5C])p.[moe](A)[sp].[moe](G)}$$$$ (last 3' nucleoside missing)
- 3 h FOB score: 1 score 0-7

Substance: RNA1{[moe](T)[sp].[moe]([m5C])p.[moe](A)p.[moe](G)p.[moe](T)p.d(T)[sp].d(T)[sp].d(T)[sp].d([m5C])[sp].d([m5C])[sp].d(T)[sp].d([m5C])[sp].d([m5C])[sp].d(A)[sp].d(G)[sp].[moe]([m5C])p.[moe](A)p.[moe](G)[sp].[moe]([m5C])}$$$$ (last 3' nucleoside missing)
- 3 h FOB score: 2 score 0-7

Substance: RNA1{[moe](G)[sp].[moe](T)p.[moe]([m5C])p.[moe](A)p.d([m5C])[sp].d(A)[sp].d(T)[sp].d(T)[sp].d([m5C])[sp].d(A)[sp].d([m5C])[sp].d(T)[sp].d(A)[sp].d(A)[sp].[moe](T)p.[moe](A)p.[moe](T)p.[moe](T)[sp].[moe](T)}$$$$ (last 3' nucleoside missing)
- 3 h FOB score: 0 score 0-7
